Earlier results in US20220249506A1, “Meloxicam-Containing Granulated Product” (SSP Co., Ltd., priority 2019, published 2022).

Details: low pH range of pH 5.0 or less

Solubility in water: almost insoluble in water
SMILES: Cc1cnc(NC(=O)C2=C(O)c3ccccc3S(=O)(=O)N2C)s1 [meloxicam]
